The record followed here is US20230099027A1 (priority 2020, published 2023).

The test system of this experiment is H1N1 Neth09. Format: cell-based, influenza A virus.

For the substance PEG8, the virucidal result is “did not give virucidal results”.
